Assay results from patent US8609656B2, “Heteroarylphenylurea derivative” (Chugai Seiyaku Kabushiki Kaisha, priority 2004, dated 2013).
Converted amounts (≈) assume the structure as drawn. Counter-ions that a name gives are not always drawn.

How the values were obtained:
[1] = system: VEGF non-dependent human umbilical vein endothelial cells (HUVEC); assay: Cell growth inhibition test, VEGF non-dependent HUVEC; assay type: cell-based; settings: 72 hours, WST-1, read-out: HUVEC (VEGF Nondependence), 50% Growth Inhibition Concentration (IC50 value)
Method: (§1) Cell Growth Inhibition Test
(§2) With respect to the compounds relating to the present invention and the known compound (BAY 43-9006), cell growth inhibition activity was measured.
(§3) A sample compound was in-series diluted with dimethyl sulfoxide, and then was 1/50 diluted with a Ca^2+- and Mg^2+-free phosphate-bufferized physiological saline and its 20 μL was poured to a 96-well plate. […] Each of these cell suspensions was dividedly poured to the sample added plate in 180 μL/well and cultured in a 5% carbon dioxide incubator at 37° C. After 72 hours, 20 μL of WST-(HCT 116, a product of Dojin) or WST-1 (HUVEC, a product of Roche diagnostics) was added thereto to each well and the absorbance at 450 nm (reference wavelength: 650 nm) was measured. From the growth inhibition ratio of addition of the sample compound to no-addition of the sample compound as a reference, the 50% growth inhibition IC50) of the sample compound was calculated.
(§4) With respect to the group of representative compounds of the present invention, the IC50 values of HCT 116 and HUVEC (VEGF nondependent growth and VEGF dependent growth) are shown in Tables 5-1 to 5-3.

VEGF dependent HUVEC = assay: Cell growth inhibition test, VEGF dependent HUVEC; assay type: cell-based; settings: Homo sapiens, 20 ng/mL of VEGF, 72 hours, WST-1, read-out: HUVEC (VEGF Dependence), 50% Growth Inhibition Concentration (IC50 value)
Method: as §1, §2, §3, §4

[2] = system: human colorectal cancer cell strain HCT 116; assay: Cell growth inhibition test, HCT 116; assay type: cell-based; settings: 72 hours, read-out: HCT116, 50% Growth Inhibition Concentration (IC50 value)
Method: as §1, §2, §3, §4

[3] = Solubility to fasted state simulated intestinal fluid; assay type: physicochemical; settings: fassif, kinetic from dmso stock, fasted state simulated intestinal fluid (pH 6.5), 37° C.
Method: Method of Measuring Solubility to Fasted State Simulated Intestinal Fluid
To a 96-well plate, 2 μL of a dimethyl sulfoxide solution of the compound relating to the present invention or that of the compound BAY 43-9006 was poured at one time, respectively, and fasted state simulated intestinal fluid (pH 6.5) was added 200 μL by 200 μL, and the plate was shaken at 37° C. for 20 hours. The solution was filtered with a membrane filter and 101 μL of the filtrate was transferred to an UV plate, and 100 μL of a mixed solution of ethanol:water=2:1 was added thereto. On the other hand, as a standard solution, 2 μL of a dimethyl sulfoxide solution was added to a solution containing 4 μL of dimethyl sulfoxide, 400 μL of ethanol and 200 μL of water and the obtained solution was transferred 101 μL by 101 μL to the UV plate and to this UV plate, the simulated fasting bile-containing intestinal juice (pH 6.5) was added 100 μL by 100 μL. The solubility was calculated by the following equation. Solubility=(absorbance of sample solution-blank)/(absorbance of standard solution-blank)×[…]
165 μL is a concentration of the standard solution.
Composition of Fasted State Simulated Intestinal Fluid
Fasted state simulated intestinal fluid was prepared in accordance with E. Galia et al., Pharm. Res., 698, 1998.
To about 90 mL of water, 161 mg of taurocholic acid, 59 mg of L-α-phosphatidylcholine, 0.39 g of potassium dihydrogenphosphate and 0.77 g of potassium chloride were added and the pH of the mixture solution […] and the mixture solution was filtered with a membrane filter.

[4] = molecular target: T1, recombinant Raf-1 protein (activated type GST-Raf-1) (Homo sapiens, UniProt P04049); assay: RAF-1 enzyme inhibition test (33P incorporation into MEK 1 protein); assay type: biochemical; settings: 10 μM ATP, GST-MEK1 substrate, 30° C., 45 minutes; read-out: Raf-1 Enzyme Inhibition, 50% Enzyme Inhibition Concentration (IC50 value)
T1 construct: fused on or other part: GST tag fused to Raf-1
Method: RAF-1 Enzyme Inhibition Test
With respect to the compounds relating to the present invention and the known compound (BAY 43-9006):
[drawing 660] the Raf-1 protein inhibition activity was measured. The enzymatic reaction was measured by incorporation of ^33P-phosphoric acid into MEK 1 protein by a recombinant Raf-1 protein. The activity was measured by preparing 50 μL of a reaction solution containing a dimethyl sulfoxide solution of the compound relating to the present invention or the compound BAY 43-9006 at a varied concentration [as the final concentration, the reaction solution containing […] of TRIS hydrochloric buffer (pH 7.5), 1 mM of dithiothreitol, 100 mM of sodium chloride, 10 mM of potassium fluoride, 1 mM of sodium vanadate, 10 mM of magnesium chloride, 10 μM of adenosine triphosphate (ATP, containing ^33P-ATP of 12580Bq), 2 μg of GST-MEK1 and 25 ng of an activated type GST-Raf-1]; keeping the reaction solution at 30° C. for 45 minutes; adding 100% trichloroacetic acid to the reaction solution in an amount twice the volume of the reaction solution to precipitate a proteinous component; recovering the precipitate on a glass filter; and measuring the radioactivity of the recovered product. The 50% inhibition concentration (IC50) was obtained from the inhibition ratio to a sample-free reference.
The compound BAYT 43-9006 was prepared on the basis of the description (Example 41) of WO 00/42012.

[5] = system: human colorectal cancer cell strain HCT 116; assay: Antitumor test, HCT 116 inoculated subcutaneously in nude mouse; assay type: in vivo, male Balb/c nude mouse; settings: dosage 200 mg/kg, orally one time a day for 5 days, final administration day
Method: as §2
(§5) A cell suspension of a human colorectal cancer cell strain HCT 116 was prepared with a Hunks' balanced salt solution. Its 5.0×10^6 were inoculated subcutaneously to the flank of each male Balb/c nude mouse. When the mean volume of a tumor reached 200 to 250 mm^3, a sample compound was orally administered one time a day for 5 days. The tumor volume was calculated from the calculation formula: 0.5×(minor diameter)^2×(major diameter), and the tumor growth inhibition ratio was calculated from the ratio of the tumor growth of the sample administered group to that of a reference group. The dosage in the antitumor test, the tumor growth inhibition ratio on the final administration day and the reduction in body weight on day 7 after starting administration are shown in Tables 6-1 and 6-2

[6] = Antitumor test, reduction in body weight; assay type: in vivo, male Balb/c nude mouse; settings: dosage 200 mg/kg, orally one time a day for 5 days, day 7 after starting administration
Method: as §5

T1 sequence (P04049 349-648 limits assumed): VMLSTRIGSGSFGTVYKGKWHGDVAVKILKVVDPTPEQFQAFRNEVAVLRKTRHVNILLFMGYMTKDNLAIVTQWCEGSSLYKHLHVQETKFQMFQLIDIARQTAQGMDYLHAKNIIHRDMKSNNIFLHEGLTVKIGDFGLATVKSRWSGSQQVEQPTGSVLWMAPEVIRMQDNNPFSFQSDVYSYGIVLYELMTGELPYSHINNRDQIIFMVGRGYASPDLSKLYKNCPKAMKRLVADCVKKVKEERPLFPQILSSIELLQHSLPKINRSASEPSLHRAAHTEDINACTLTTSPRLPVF

| IC50 [2] | solubility at 20 h [3] | IC50 [4] | SMILES | IC50 [1] | IC50 (VEGF dependent HUVEC) | Tumor Inhibition Ratio (%) [5] | Body Weight Reduction ratio (%) [6] |
| --- | --- | --- | --- | --- | --- | --- | --- |
| 2800 nM | 24 µg/mL | – | COCCNc1ncnc2c1ncn2-c1ccc(NC(=O)Nc2ccc(Cl)c(C(F)(F)F)c2)cc1.Cl [Table 1, Compound 35, 1-(4-Chloro-3-(trifluoromethyl)phenyl)-3-{4-[6-(2-methoxy-ethylamino)purin-9-yl]phenyl}urea hydrochloride] | 2400 nM | 460 nM | – | – |
| 700 nM | 22 µg/mL | 110 nM | CNc1ncnc2c1ncn2-c1ccc(NC(=O)Nc2ccc(Cl)c(C(F)(F)F)c2)cc1.Cl [Table 1, Compound 36, 1-(4-Chloro-3-(trifluoromethyl)phenyl)-3-[4-(6-(methylamino)purin-9-yl)phenyl]urea hydrochloride] | 250 nM | 79 nM | 81% | 5.9% |
| – | – | 53 nM | CNC(=O)c1nccc2c1ncn2-c1ccc(NC(=O)Nc2ccc(Cl)c(C(F)(F)F)c2)cc1 [Table 1, Compound 93, 1-{4-[3-(4-Chloro-3-(trifluoro-methyl)phenyl)ureido]phenyl}-1H-imidazo[4,5-c]pyridine-4-carboxylic acid methylamide] | – | – | 79% | 6.0% |
| 3100 nM | – | 42 nM | CN(C)/C=N\c1ncnc2c1ncn2-c1ccc(NC(=O)Nc2ccc(Cl)c(C(F)(F)F)c2)cc1 [Table 1, Compound 95, N′-(9-{4-[3-(4-Chloro-3-(tri-fluoromethyl)phenyl)ureido]-phenyl}-9H-purin-6-yl}-N,N-dimethylformamidine hydro-chloride] | 2600 nM | 470 nM | – | – |
| 2200 nM | 102 µg/mL | 44 nM | CC(C)C[C@H](N)C(=O)Nc1ncnc2c1ncn2-c1ccc(NC(=O)Nc2ccc(Cl)c(C(F)(F)F)c2)cc1 [Table 1, Compound 96, (S)-2-Amino-4-methyl-pentanoic acid 9-{4-[3-(4-chloro-3-(tri-fluoromethyl)phenyl)ureido}-phenyl)-9H-purin-6-yl)amide hydrochloride] | 3200 nM | 91 nM | – | – |
| 3900 nM | – | 74 nM | N[C@@H](CCC(=O)Nc1ncnc2c1ncn2-c1ccc(NC(=O)Nc2ccc(Cl)c(C(F)(F)F)c2)cc1)C(=O)O [Table 1, Compound 104, (S)-2-Amino-4-(9-{4-[3-(4-chloro-3-(trifluoromethyl)-phenyl)ureido]phenyl}-9H-purin-6-ylcarbamoyl)butanoic acid hydrochloride] | 7400 nM | 930 nM | – | – |
| – | 61 µg/mL (≈ 116 µM) | 83 nM | CN1CCN(Cc2cc(NC(=O)Nc3ccc(-n4cnc5c(N)ncnc54)cc3)cc(C(F)(F)F)c2)CC1 [Table 2, Compound 26] | – | – | 72% | 5.0% |
| – | 105 µg/mL (≈ 217 µM) | 190 nM | CNc1ncnc2c1ncn2-c1ccc(NC(=O)Nc2cc(CN(C)C)cc(C(F)(F)F)c2)cc1 [Table 2, Compound 30, 1-(3-Dimethylaminomethyl-5-(trifluoromethyl)phenyl)-3-[4-(6-(methylamino)purin-9-yl)-phenyl]urea] | – | – | 131% | 5.7% |
| 3800 nM | 126 µg/mL (≈ 245 µM) | – | CNc1ncnc2c1ncn2-c1ccc(NC(=O)Nc2ccc(OCCN(C)C)c(C(F)(F)F)c2)cc1 [Table 2, Compound 52, 1-[4-(2-Dimethylaminoethoxy)-3-(trifluoromethyl)phenyl]-3-[4-(6-(methylamino)purin-9-yl)phenyl]urea] | 3800 nM | 270 nM | – | – |
| 700 nM | 35 µg/mL (≈ 64.7 µM) | – | CNc1ncnc2c1ncn2-c1ccc(NC(=O)Nc2ccc(OC3CCN(C)CC3)c(C(F)(F)F)c2)cc1 [Table 2, Compound 62, 1-[4-(6-(Methylamino)purin-9-yl)-phenyl]-3-[4-(1-methylpiperidin-4-yloxy)-3-(trifluoromethyl)phenyl]-urea] | 900 nM | 11 nM | – | – |
| 2700 nM | – | – | CN1CCN(Cc2ccc(NC(=O)Nc3ccc(-n4cnc5cnccc54)cc3)cc2C(F)(F)F)CC1 [Table 3, Compound 18, 1-(4-Imidazo[4,5-c]pyridin-1-yl-phenyl)-3-[4-(4-methyl-piperazin-1-ylmethyl)-3-(trifluoromethyl)phenyl]urea] | 3100 nM | 26 nM | – | – |
| 200 nM | – | – | CNc1ncnc2c1ncn2-c1ccc(NC(=O)Nc2ccc(CN3CCN(C(C)C)CC3)c(C(F)(F)F)c2)cc1 [Table 3, Compound 28, 1-[4-(4-Isopropyl-piperazin-1-ylmethyl)-3-(trifluoromethyl)phenyl]-3-[4-(6-(methylamino)purin-9-yl)phenyl]urea] | 300 nM | 8 nM | – | – |
| 800 nM | – | – | CNc1ncnc2c1ncn2-c1ccc(NC(=O)Nc2ccc(OCCOC)c(C(F)(F)F)c2)cc1 [Table 3, Compound 41, 1-[4-(2-Methoxy-ethoxy)-3-(trifluoromethyl)phenyl]-3-[4-(6-(methylamino)purin-9-yl)phenyl]urea] | 900 nM | 76 nM | – | – |
| 2800 nM | 23 µg/mL (≈ 41.5 µM) | 41 nM | CNc1ncnc2c1ncn2-c1ccc(NC(=O)Nc2ccc(CN3CC(C)NC(C)C3)c(C(F)(F)F)c2)cc1 (stereo not drawn) [Table 3, Compound 46, 1-[4-(3,5-Dimethyl-piperazin-1-ylmethyl)-3-(trifluoromethyl)phenyl]-3-[4-(6-(methylamino)purin-9-yl)phenyl]urea] | 4200 nM | 290 nM | – | – |
| 2500 nM | – | – | CNc1ncnc2c1ncn2-c1ccc(NC(=O)Nc2cc(CCCN3CCOCC3)cc(C(F)(F)F)c2)cc1 [Table 3, Compound 48, 1-[4-(6-(Methylamino)purin-9-yl)phenyl]-3-[3-(3-morpholin-4-yl-propyl)-5-(trifluoromethyl)phenyl]-urea] | 3200 nM | 39 nM | – | – |
